Type in all cases: cell-based, human
Experiment [1] deals with LNCaP. The experiment is described as follows: ATP luminescence proliferation assay, LNCaP. The method, then: (§1) This example generally describes the procedures used to assay the antiproliferative activity of compounds of this invention or their conjugates. Human tumor cell lines were obtained from the American Type Culture Collection (ATCC), P.O. Box 1549, Manassas, Va. 20108, USA, and cultured according to instruction from the ATCC. Cells were seeded at 1.0×10^3 or 1.0×10^4 cells/well in 96-well plates for 3 h for ATP assays or ^3H thymidine assays, respectively. 1:3 serial dilutions of free (unconjugated) compounds or their conjugates were added to the wells. Plates were allowed to incubate for 24 to 72 h. The ^3H thymidine plates were pulsed with 1.0 μCi of ^3H-thymidine per well for the last 24 hours of the total incubation period, harvested, and read on a Top Count Scintillation Counter (Packard Instruments, Meriden, Conn.). ATP levels in the ATP plates were measured using the […]-GLO® Luminescent Cell Viability kit following the manufacturer's manual and read on a GLOMAX® 20/20 luminometer (both from Promega, Madison, Wis., USA). The EC50 values—the concentration at which an agent inhibits or reduces cell proliferation by 50% —were determined using PRISM™ software, version 4.0 (GraphPad Software, La Jolla, Calif., USA).
(§2) Using the ^3H thymidine or the ATP luminescence assay, or both, the activities of compounds of this invention were assayed against the following cancer cell lines: HCT-15 (colorectal cancer, multi-drug resistant (MDR)); Hep3B (liver cancer); LNCaP (prostate cancer, androgen receptor positive (AR^+)); MDA-MB-231 (breast cancer, estrogen receptor, progesterone receptor, and Her2 negative (triple negative)); A2058 (melanoma); U-87 MG (glioblastoma); NCI-H460 (NSCLC); A549 (NSCLC); HPAC (pancreatic cancer, primary); PC3 (prostate cancer, AR); BT474 (breast cancer, Her2 highly positive (Her2hi)); SKOV3 (ovarian cancer, Her2hi); 786-O (renal cancer); UO-31 (renal cancer, MDR); NCI-H740 (SCLC); DMS53 (SCLC); SK-BR3 (breast cancer, Her2hi); ZR-75 (breast cancer, estrogen receptor positive); OVCAR3 (ovarian cancer); HL-60 (APL); OVCAR8/Adr (ovarian cancer, MDR); CEM-Cl (ALL); Nomo-1 (AML); RPMI-8226 (MM)); Raji (lymphoma); SW-480 (colorectal cancer, metastatic); SW-620 (colorectal cancer); and H226 (lung cancer). (Not all compounds were assayed against all cell lines.)
(§3) Table 3 provides the data for the ATP luminescence proliferation assays, with an incubation period of 48, 72, or 96 h, as noted.

Experiment [2] relates to HCT-15. Description: 3H thymidine proliferation assay, HCT-15. In a few lines: (§4)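 Cells were seeded at 1.0×10^4 cells/well and treated with 1:3 serial dilutions of free compound or conjugate for 72 h. ^3H-thymidine (1.0 μCi/well) was pulsed for the final 24 h, and uptake was measured by scintillation counting. EC50 is the concentration reducing proliferation by 50%.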
In a further experiment the test system is Raji. The experiment is described as follows: 3H thymidine proliferation assay, Raji. The procedure, abridged: as §4
The test system of the next experiment is A549. The experiment is described as follows: ATP luminescence proliferation assay, A549. The method, then: as §1, §2, §3
For the next experiment, the system named is U-87 MG. Description: ATP luminescence proliferation assay, U-87 MG. The procedure: as §1, §2, §3
The subject of experiment [3] is LNCaP. The experiment is described as follows: 3H thymidine proliferation assay, LNCaP. In a few lines: as §4
In the next experiment the test system is H740. The experiment is described as follows: 3H thymidine proliferation assay, H740. In a few lines:
as §4

The next experiment relates to RPMI-8226. The experiment is described as follows: ATP luminescence proliferation assay, RPMI-8226. The method, then:
as §1, §2, §3

In another experiment the test system is Nomo-1. The experiment is described as follows: ATP luminescence proliferation assay, Nomo-1. The procedure: as §1, §2, §3
The test system of the next experiment is UO-31. Description: ATP luminescence proliferation assay, UO-31. The procedure: as §1, §2, §3
Experiment [4] has as its system HCT-15. Description: ATP luminescence proliferation assay, HCT-15. In a few lines:
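Human tumor lines, cultured per supplier instructions, are plated at 1.0×10^3 cells/well and allowed 3 h before 1:3 serially diluted test agents are added. Viability is read as ATP luminescence after 48, 72 or 96 h.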

For the next experiment, the system named is HPAC. The experiment is described as follows: 3H thymidine proliferation assay, HPAC. In a few lines: as §4
In the next experiment the test system is 786-O. Description: 3H thymidine proliferation assay, 786-O. In a few lines:
as §4

The subject of another experiment is ZR-75. Description: 3H thymidine proliferation assay, ZR-75. The procedure, abridged:
as §4

The subject of a further experiment is NCI-H740. The experiment is described as follows: ATP luminescence proliferation assay, NCI-H740. The note with it: H740, 72 h incubation. The method, then:
as §1, with “Calif., USA). […]” for “Calif., USA).”
as §3

Setting [5] is: Homo sapiens, ATP luminescence, 72 h incubation, read-out: EC50 LNCaP (72 h).
The mark [6] stands for this setting: Homo sapiens, HCT-15, 3H thymidine method, 72 h incubation, read-out: EC50, HCT-15.
The mark [7] stands for this setting: Homo sapiens, Raji, 3H thymidine method, 72 h incubation, read-out: EC50, Raji.
Setting [8] is: Homo sapiens, ATP luminescence, A549, 48 h incubation, read-out: EC50 A549 (48 h).
The mark [9] stands for this setting: Homo sapiens, ATP luminescence, 72 h incubation, read-out: EC50 U-87 MG (72 h).
[10] abbreviates: Homo sapiens, LNCaP, 3H thymidine method, 72 h incubation, read-out: EC50, LNCaP.
Setting [11] is: Homo sapiens, 3H thymidine method, 72 h incubation, read-out: EC50, H740.
Where [12] appears, read: Homo sapiens, ATP luminescence, RPMI-8226, 72 h incubation, read-out: EC50 RPMI-8226 (72 h).
Where [13] appears, read: Homo sapiens, ATP luminescence, Nomo-1, 72 h incubation, read-out: EC50 Nomo-1 (72 h).
The mark [14] stands for this setting: Homo sapiens, ATP luminescence, UO-31, 48 h incubation, read-out: EC50 UO-31 (48 h).
The mark [15] stands for this setting: Homo sapiens, ATP luminescence, HCT-15, 72 h incubation, read-out: EC50 HCT-15 (72 h).
Where [16] appears, read: Homo sapiens, HPAC, 3H thymidine method, 72 h incubation, read-out: EC50, HPAC.
The mark [17] stands for this setting: Homo sapiens, 786-0, 3H thymidine method, 72 h incubation, read-out: EC50, 786-O.
The mark [18] stands for this setting: Homo sapiens, ZR75, 3H thymidine method, 72 h incubation, read-out: EC50, ZR-75.

Where two headings read alike, the source gives them in different places.

As a reminder, the EC50 is the concentration that produces a half-maximal response. On to `COc1cccc2c1C(=O)c1c(O)c3c(c(O)c1C2=O)C[C@@](O)(C(=O)CO)C[C@@H]3O[C@H]1C[C@H](N)[C@H](O)[C@H](C)O1` [Dox, doxorubicin, reference compound], for which the EC50 in the experiment with LNCaP [1] (setting [5]) stood at 592 nM; with HCT-15 [2] (setting [6]), 149 nM; in the experiment with Raji (setting [7]), 61 nM; with A549 (setting [8]), 149 nM; in the experiment with U-87 MG (setting [9]) it was 324 nM; with LNCaP [3] (setting [10]), 130 nM. Also, the EC50 with H740 (setting [11]) is 255 nM; with RPMI-8226 (setting [12]), 345 nM; with Nomo-1 (setting [13]), 338 nM; with UO-31 (setting [14]), 908 nM; in the experiment with HCT-15 [4] (setting [15]), 600 nM; with HPAC (setting [16]), 126 nM. The figures for the 50% effective concentration (EC50) in the experiment on 786-O (setting [17]) and in the experiment with ZR-75 (setting [18]) were 168 nM and 794 nM, respectively.
With `CC[C@H](C)[C@H](NC(=O)[C@H]1CCCCN1C)C(=O)N(C)[C@H](C[C@@H](OC(C)=O)c1nc(C(=O)N[C@@H](Cc2ccc(N)cc2)CC(C)C(=O)O)cs1)C(C)C` (stereo partly shown) [Compound 36], the EC50 was greater than 300 nM in the experiment on LNCaP [1] (Homo sapiens, 72 h, read-out: EC50 LNCaP (72 h), ATP luminescence, LNCaP, 72 h incubation); 64 nM in the experiment on HCT-15 [2] (Homo sapiens, HCT-15, read-out: EC50, HCT-15, 3H thymidine method, 72 h incubation); 15 nM with Raji (Homo sapiens, Raji, read-out: EC50, Raji, 3H thymidine method, 72 h incubation); 1.9 nM in the experiment on A549 (Homo sapiens, A549, 48 h, read-out: EC50 A549 (48 h), ATP luminescence, A549, 48 h incubation); 37 nM in the experiment with U-87 MG (Homo sapiens, 72 h, read-out: EC50 U-87 MG (72 h), ATP luminescence, U-87 MG, 72 h incubation); 342 nM with LNCaP [3] (Homo sapiens, LNCaP, read-out: EC50, LNCaP, 3H thymidine method, 72 h incubation). Also, the EC50 was greater than 100 nM in the experiment on H740 (Homo sapiens, read-out: EC50, H740, 3H thymidine method, 72 h incubation); 62 nM in the experiment on RPMI-8226 (Homo sapiens, RPMI-8226, 72 h, read-out: EC50 RPMI-8226 (72 h), ATP luminescence, RPMI-8226, 72 h incubation); 34 nM in the experiment on Nomo-1 (Homo sapiens, NOMO-1, 48 h, read-out: EC50 Nomo-1 (48 h), ATP luminescence, Nomo-1, 48 h incubation); 8.8 nM with UO-31 (Homo sapiens, UO-31, 48 h, read-out: EC50 UO-31 (48 h), ATP luminescence, UO-31, 48 h incubation); 96 nM with HCT-15 [4] (Homo sapiens, HCT-15, 72 h, read-out: EC50 HCT-15 (72 h), ATP luminescence, HCT-15, 72 h incubation); 83 nM in the experiment with HPAC (Homo sapiens, HPAC, read-out: EC50, HPAC, 3H thymidine method, 72 h incubation). The EC50 in the experiment with 786-O (Homo sapiens, 786-0, read-out: EC50, 786-O, 3H thymidine method, 72 h incubation) was greater than 100 nM; in the experiment on ZR-75 (Homo sapiens, ZR75, read-out: EC50, ZR-75, 3H thymidine method, 72 h incubation), greater than 100 nM.
Consider `CC[C@H](C)[C@H](NC(=O)[C@H]1CCCCN1C)C(=O)N(COC(=O)CC(C)C)[C@H](C[C@@H](OC(C)=O)c1nc(C(=O)N[C@@H](Cc2ccccc2)C[C@H](C)C(=O)O)cs1)C(C)C` [Tub D, tubulysin D, reference compound], for which the EC50 in the experiment with LNCaP [1] (ATP luminescence, 72 h incubation, read-out: EC50 LNCaP (72 h)) was determined as 0.093 nM; in the experiment on HCT-15 [2] (3H thymidine method, 72 h incubation, read-out: EC50, HCT-15) it was 0.062 nM; in the experiment on Raji (3H thymidine method, 72 h incubation, read-out: EC50, Raji), 0.013 nM; in the experiment with A549 (ATP luminescence, A549, 48 h incubation, read-out: EC50 A549 (48 h)), 0.02 nM; with NCI-H740 it was 0.022 nM; in the experiment on U-87 MG (ATP luminescence, 72 h incubation, read-out: EC50 U-87 MG (72 h)), 0.0054 nM. Moreover, the EC50 in the experiment with LNCaP [3] (3H thymidine method, 72 h incubation, read-out: EC50, LNCaP) was 0.36 nM; in the experiment on H740 (3H thymidine method, 72 h incubation, read-out: EC50, H740), 2.2 nM; with RPMI-8226 (ATP luminescence, RPMI-8226, 72 h incubation, read-out: EC50 RPMI-8226 (72 h)), 0.0051 nM; in the experiment with Nomo-1 (ATP luminescence, Nomo-1, 72 h incubation, read-out: EC50 Nomo-1 (72 h)), 0.013 nM; in the experiment on UO-31 (ATP luminescence, UO-31, 48 h incubation, read-out: EC50 UO-31 (48 h)), 0.099 nM; in the experiment with HCT-15 [4] (ATP luminescence, HCT-15, 72 h incubation, read-out: EC50 HCT-15 (72 h)), 0.014 nM. The EC50 with HPAC (3H thymidine method, 72 h incubation, read-out: EC50, HPAC) came out at 0.015 nM; in the experiment with 786-O (3H thymidine method, 72 h incubation, read-out: EC50, 786-O) it was 0.15 nM; in the experiment on ZR-75 (3H thymidine method, 72 h incubation, read-out: EC50, ZR-75), 1.7 nM.
Regarding `Nc1ccc(C(=O)Nc2ccc3[nH]c(C(=O)N4C[C@@H](CCl)c5c4cc(O)c4ccccc54)cc3c2)cc1` [CBI, reference compound], the EC50 with LNCaP [1] (setting [5]) stood at 3.3 nM; in the experiment on HCT-15 [2] (setting [6]) it was 0.04 nM; in the experiment on Raji (setting [7]) it was 0.013 nM; in the experiment on A549 (setting [8]), 3 nM; in the experiment with NCI-H740 (Homo sapiens) it was 2.2 nM; in the experiment with U-87 MG (setting [9]), 3.3 nM. Also, the EC50 came to 0.051 nM in the experiment with LNCaP [3] (setting [10]); 0.098 nM with H740 (setting [11]); 4.1 nM in the experiment with RPMI-8226 (setting [12]); 0.37 nM in the experiment with Nomo-1 (setting [13]); 4.2 nM with UO-31 (setting [14]); 3.4 nM in the experiment with HCT-15 [4] (setting [15]). For the same compound, the EC50 amounted to 0.063 nM in the experiment with HPAC (setting [16]), 0.035 nM with 786-O (setting [17]) and 1.5 nM in the experiment with ZR-75 (setting [18]).
